Test results taken from US20240011976A1, “ADDITIVES FOR REDUCING NON-SPECIFIC INTERACTIONS BETWEEN FLUORESCENT POLYMER CONJUGATES AND CELLS IN A BIOLOGICAL SAMPLE” (Beckman Coulter, Inc., priority 2008, published 2024).
“Also recorded” adds a separate entry of the source.

Experiments:
monocytes [1] = test: Anionic surfactant NLS, non-specific staining of CD20-SN v605 on monocytes, peripheral blood flow cytometry; type: cell-based; conditions: CD20-SN v605, buffer with BSA, sodium azide and Empigen BB, FIG. 17B
Procedure: (§1) In this example, different concentrations (0.16%, 0.08%, 0.04% and 0.02% w/v) of NLS was formulated with SN v605 CD20 conjugate in the presence of BSA and sodium azide and stained peripheral blood samples. Flow cytometry was performed following sample staining.

monocytes/granulocytes = test: Blood sample stained with unconjugated polymer dye SN v605 with and without Empigen BB, flow cytometry; type: cell-based; conditions: SN v605 without antibody, with EMPIGEN BB, FIG. 2
Text: A blood sample was stained with unconjugated polymer dye SN v605 (without antibody), with and without Empigen BB®, and analyzed in a flow cytometer. […] In FIG. 2, the fluorescent polymer dye SN v605 without antibody was used to stain a blood sample and analyzed in a flow cytometer. […] While not wishing to be bound by any specific theory, it is thought that the polymer is likely adsorbing on the cell surface of monocytes and granulocytes.

[2] = 20-25° C.; cited from earlier work
monocytes [3] = test: Monocyte background (non-specific binding) of SN 428 conjugates with EMPIGEN BB, whole blood flow cytometry; type: cell-based; conditions: 0.06 to 0.20% Empigen BB vs absence of surfactant, FIG. 11
Procedure: (§2) The efficiency of zwitterionic surfactant EMPIGEN BB® on the reduction of non-specific binding with monocytes was evaluated. Other populations were also studied, namely lymphocytes and granulocytes, to evaluate the non-impact of the detergent on MFI and percentage of cells.
(§3) The experimental conditions were generally as follows: • CD19-SN 428 (lot D19-094, polymer lot RDS-042919 (82.7 kD), 1 dose (0.5 μg/test). • CD22-SN 428 (lot D19-109, polymer lot WX-20190624 (86.4 kD), 1 dose (0.5 μg/test). • CD25-SN 428 (lot D19-107, polymer lot RDS-062419 (72.8 kD), 1 dose (0.5 μg/test). • CD19, CD22 and CD25-BV 421 from Becton Dickinson at 1× commercial dose. • Three doses of EMPIGEN BB®0.06%, 0.12%, and 0.2% prepared in conjugate final formulation. • Added 10 μL sample with 100 μL whole blood. • Tested on 2 donors lysing with VersaLyse (lysing solution, used to lyse red blood cells, Beckman Coulter, Inc.)+Fix, one wash. • Navios flow cytometer acquisition on FL9.
(§4) The required x number of tubes were prepared, wherein “x number of tubes” depends on the performance tested. A calculated volume of conjugated antibody (at required dose) was added to each tube. Whole blood (100 μL) was added in each tube. The tubes were gently vortexed for 15 seconds and incubated for 15 to 20 minutes at room temperature at 18-25° C. and protected from light. […]

[4] = Empigen BB concentration in conjugate formulation and during staining versus CMC; type: physicochemical
Procedure: The micellar concentration was studied in samples and during the staining to be sure not to exceed critical micellar concentration (CMC). […] CMC was studied in the conjugate formulation and during the staining in 100 μL whole blood. Experiments were conducted to evaluate the impact of addition of EMPIGEN BB® on whole blood cell integrity and also on peripheral blood mononuclear cells (PMBCs).

whole blood cells = test: 7-AAD staining, percentage of dead cells in whole blood; type: cell-based; conditions: up to 0.2% EMPIGEN BB with CD19-SNv428, 7-AAD
Procedure: The percentage of dead cells in whole blood sample with the 7-AAD was evaluated. 7-AAD is a DNA marker, the staining is positive when the cellular membrane is permeabilized. CD19-SNv428 D19-094 without EMPIGEN BB®@(negative control) and with 0.06%, 0.12%, and 0.2% EMPIGEN BB®, was tested on four donors' whole blood, with the 7-ADD, to evaluate the percentage of dead cells in each condition. The goal of the experiment was to verify if the percentage of dead cells is not increased by the EMPIGEN BB® concentration.
Two whole blood samples that had been preserved for greater than 24 hours were added as positive control of 7-AAD staining.
Protocol for 7-AAD staining: • 100 μl whole blood+10 μl CD19-SNv428+/−Empigen, incubation 20 minutes. • Lyse with Versalyse, one wash, • Resuspension in 500 μl PBS 1× • Add 20 μl of 7-AAD (Ref B88526), incubation 15-20 minutes • Navios flow cytometer acquisition: FL4 for 7-AAD and FL9 for CD19-SNv428

granulocytes [5] = test: Non-specific binding of SN 605-CD20 and SN 786-CD103 conjugate lots to granulocytes with and without EMPIGEN BB (MdFI, dot plots); type: cell-based; conditions: with vs without surfactant (EMPIGEN BB), FIG. 3 and FIG. 6
Procedure: In order to confirm the effect of EMPIGEN BB®, two lots of SN 605-CD20 conjugates were tested in the presence and absence of EMPIGEN BB®. The mean fluorescence intensity (MFI) was compared to the autofluorescence (negative population median fluorescence intensity (MdFI)) of the monocytes from the unstained sample.
Two lots of SN 786-CD103 conjugates were tested in presence and absence of EMPIGEN BB® and the autofluorescence (negative population MdFI) of the monocyte and granulocyte population is compared against an unstained sample.

positive lymphocytes = test: Positive lymphocyte signal of SN 428 conjugates with EMPIGEN BB, whole blood flow cytometry; type: cell-based; conditions: compared to the condition without EMPIGEN
Procedure: as §2, §3, §4

granulocytes [6] = test: Anionic surfactant NLS, non-specific staining of CD20-SN v605 on granulocytes, peripheral blood flow cytometry; type: cell-based; conditions: CD20-SN v605, buffer with BSA, sodium azide and NLS, FIG. 17B
Procedure: as §1

granulocytes/monocytes = test: Protein blockers, non-specific interactions of SN v605-CD20 conjugate with granulocytes/monocytes; type: cell-based
Text: The issue of non-specific interaction on monocytes was also observed with conventional tandem dyes (e.g., PC5, PC5.5, PC7, AA700 available from Beckman Coulter, Inc.). To overcome this issue, it was thought that BSA-ox (oxidized BSA) and BSA-Cy5-ox (oxidized Cy5-BSA), which are known protein blockers, might prevent non-specific binding.

| Compound | % population in the gate Mons Non-specific binding (monocytes [1]) [%] | non-specific binding of polymer dye to monocytes/granulocytes (monocytes/granulocytes) | CMC [2] [mM] | non-specific monocyte interactions (negative monocyte MFI) (monocytes [3]) | concentration relative to CMC, formulation in the vial ([4]; 0.2% in the vial) | Empigen BB concentration, formulation in the vial ([4]; 0.2%, 2 g/L, 279 g/mol) [mM] | concentration relative to CMC during the staining ([4]; 100 μL WB, 10 μl conjugate) | Empigen BB concentration during the staining ([4]; 100 μL WB, 10 μl conjugate, dilution factor 11) [mM] | percentage of dead cells / whole blood cell death (whole blood cells) | percentage of non-specifically bound granulocytes (dot plot gate) (granulocytes [5]) | variation of the positive signal on lymphocytes (positive lymphocytes) | % population in the gate Grans Non-specific binding (granulocytes [6]) [%] | percentage of non-specifically bound monocytes and granulocytes / controlling non-specific interactions (granulocytes/monocytes; FIG. 10) | percentage of non-specifically bound monocytes and granulocytes / controlling non-specific interactions (granulocytes/monocytes; FIG. 10, listed as oxidized BSA) |
| --- | --- | --- | --- | --- | --- | --- | --- | --- | --- | --- | --- | --- | --- | --- |
| CCCCCCCCCCCC[N+](C)(C)CC(=O)[O-] [EMPIGEN BB®, N,N-dimethyl-N-dodecylglycine betaine] | 0.64 | substantially reduced; also recorded: reduced drastically; also recorded: substantial decrease | 1.6 to 2.1 | lower percent of non-specific monocyte interactions | > CMC within the conjugate formulation | 7.2 | < CMC during the staining | 0.65 | does not induce whole blood cell permeabilization or death; also recorded: didn't induce whole blood cell death; also recorded: not substantially increased | reduced | did not induce a significant variation | 0.68 | – | – |
| BSA-Cy5-ox: oxidized Cy5-BSA, known protein blocker | – | – | – | – | – | – | – | – | – | – | – | – | inefficient; also recorded: not substantially reduced | – |
| BSA-ox: oxidized BSA, known protein blocker | – | – | – | – | – | – | – | – | – | – | – | – | inefficient | not substantially reduced |
